Assay results from ChEMBL document CHEMBL1909046, “DrugMatrix in vitro pharmacology data”.

Legend:
Substance-P receptor = Substance-P receptor (Homo sapiens, UniProt P25103); format: cell membranes, Membrane; settings: cho; also: in other assays of this panel Not Active means under 50% inhibition at 10 µM
[1] = molecular target: T1, C-C chemokine receptor type 4 (Homo sapiens, UniProt P51679); format: cell membranes, Chem-1, Membrane; settings: chem-1; also: in other assays of this panel Not Active means under 50% inhibition at 10 µM
T1 sequence (P51679 whole entry): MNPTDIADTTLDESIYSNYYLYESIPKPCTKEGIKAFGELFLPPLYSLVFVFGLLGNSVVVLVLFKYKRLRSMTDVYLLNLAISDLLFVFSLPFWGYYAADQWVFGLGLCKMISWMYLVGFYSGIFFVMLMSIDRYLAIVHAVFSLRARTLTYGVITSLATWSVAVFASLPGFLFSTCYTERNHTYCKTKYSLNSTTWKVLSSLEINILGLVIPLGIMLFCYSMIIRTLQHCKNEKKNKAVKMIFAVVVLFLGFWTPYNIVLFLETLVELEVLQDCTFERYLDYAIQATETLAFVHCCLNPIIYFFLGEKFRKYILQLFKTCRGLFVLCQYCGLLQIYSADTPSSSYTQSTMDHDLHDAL

[2] = molecular target: Prostaglandin G/H synthase 1 (Homo sapiens, UniProt P23219); assay: biochemical; format: tissue-based, Platelet; settings: platelet;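 also: inhibition of COX-1 enzyme activity, with arachidonic acid supplied as substrate; in other assays of this panel Not Active means under 50% inhibition at 10 µM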
[3] = DRUGMATRIX: Glutamate, AMPA radioligand binding (ligand: [3H] AMPA); format: cell membranes, Rattus norvegicus, Wistar, Cerebral cortex, Membrane; settings: Not Active = under 50% inhibition at 10 µM
[4] = molecular target: T2, Muscarinic acetylcholine receptor M4 (Homo sapiens, UniProt P08173); format: cell membranes, CHO-K1, Membrane; settings: cho-k1; also: in other assays of this panel Not Active means under 50% inhibition at 10 µM
T2 sequence (P08173 whole entry): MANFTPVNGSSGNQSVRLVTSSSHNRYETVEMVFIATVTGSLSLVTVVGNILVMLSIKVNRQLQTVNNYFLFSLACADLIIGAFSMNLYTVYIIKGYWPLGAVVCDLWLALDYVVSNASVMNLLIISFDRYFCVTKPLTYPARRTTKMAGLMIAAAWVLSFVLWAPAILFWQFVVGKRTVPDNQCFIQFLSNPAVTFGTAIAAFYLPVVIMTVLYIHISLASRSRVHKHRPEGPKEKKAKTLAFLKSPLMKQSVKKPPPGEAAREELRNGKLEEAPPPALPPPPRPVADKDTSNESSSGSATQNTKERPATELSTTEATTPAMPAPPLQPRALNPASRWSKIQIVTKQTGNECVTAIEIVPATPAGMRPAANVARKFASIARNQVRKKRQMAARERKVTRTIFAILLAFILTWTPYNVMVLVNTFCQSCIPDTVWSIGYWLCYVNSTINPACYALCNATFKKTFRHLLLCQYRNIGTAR

[5] = molecular target: T3, Neuropeptide Y receptor type 2 (Homo sapiens, UniProt P49146); format: cell membranes, Membrane; settings: kan-ts; also: in other assays of this panel Not Active means under 50% inhibition at 10 µM
T3 sequence (P49146 whole entry): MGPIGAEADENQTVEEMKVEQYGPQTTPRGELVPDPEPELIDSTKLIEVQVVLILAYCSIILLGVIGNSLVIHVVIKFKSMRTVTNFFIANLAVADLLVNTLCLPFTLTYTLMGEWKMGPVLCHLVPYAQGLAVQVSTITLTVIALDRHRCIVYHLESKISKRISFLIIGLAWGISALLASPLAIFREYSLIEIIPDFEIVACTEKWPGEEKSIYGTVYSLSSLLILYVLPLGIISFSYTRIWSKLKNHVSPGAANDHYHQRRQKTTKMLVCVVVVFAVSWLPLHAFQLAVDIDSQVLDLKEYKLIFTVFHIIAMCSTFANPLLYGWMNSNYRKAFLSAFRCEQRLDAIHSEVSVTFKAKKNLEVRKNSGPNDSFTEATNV

[6] = molecular target: Mitogen-activated protein kinase 1 (Homo sapiens, UniProt P28482); assay: DRUGMATRIX: Protein Serine/Threonine Kinase, ERK2 enzyme inhibition (substrate: Myelin Basic Protein); parameters: species or system Escherichia coli; settings: Not Active = under 50% inhibition at 10 µM
Mitogen-activated protein kinase 1, sequence (P28482 whole entry): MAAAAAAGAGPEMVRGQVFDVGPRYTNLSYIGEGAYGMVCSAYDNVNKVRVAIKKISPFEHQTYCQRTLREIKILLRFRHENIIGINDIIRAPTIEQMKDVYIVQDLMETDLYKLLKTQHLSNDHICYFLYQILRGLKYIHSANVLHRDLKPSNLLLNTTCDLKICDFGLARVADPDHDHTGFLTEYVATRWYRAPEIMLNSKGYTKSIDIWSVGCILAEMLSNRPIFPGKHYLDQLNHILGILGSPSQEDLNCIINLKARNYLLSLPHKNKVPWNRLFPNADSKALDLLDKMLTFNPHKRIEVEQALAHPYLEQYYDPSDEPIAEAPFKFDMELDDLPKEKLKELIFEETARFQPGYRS

Substance-P receptor, sequence (P25103 whole entry): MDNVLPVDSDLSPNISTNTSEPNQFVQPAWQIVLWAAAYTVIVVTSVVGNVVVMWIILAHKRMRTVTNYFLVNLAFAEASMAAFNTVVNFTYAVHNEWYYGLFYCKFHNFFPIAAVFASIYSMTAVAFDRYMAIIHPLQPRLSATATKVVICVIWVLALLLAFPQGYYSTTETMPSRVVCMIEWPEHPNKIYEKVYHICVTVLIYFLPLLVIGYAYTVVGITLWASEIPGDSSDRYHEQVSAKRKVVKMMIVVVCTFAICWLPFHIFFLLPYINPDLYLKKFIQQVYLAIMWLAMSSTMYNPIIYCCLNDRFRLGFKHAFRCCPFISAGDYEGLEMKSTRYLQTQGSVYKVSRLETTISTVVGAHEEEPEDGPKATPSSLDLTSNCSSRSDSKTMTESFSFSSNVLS
Prostaglandin G/H synthase 1, sequence (P23219 whole entry): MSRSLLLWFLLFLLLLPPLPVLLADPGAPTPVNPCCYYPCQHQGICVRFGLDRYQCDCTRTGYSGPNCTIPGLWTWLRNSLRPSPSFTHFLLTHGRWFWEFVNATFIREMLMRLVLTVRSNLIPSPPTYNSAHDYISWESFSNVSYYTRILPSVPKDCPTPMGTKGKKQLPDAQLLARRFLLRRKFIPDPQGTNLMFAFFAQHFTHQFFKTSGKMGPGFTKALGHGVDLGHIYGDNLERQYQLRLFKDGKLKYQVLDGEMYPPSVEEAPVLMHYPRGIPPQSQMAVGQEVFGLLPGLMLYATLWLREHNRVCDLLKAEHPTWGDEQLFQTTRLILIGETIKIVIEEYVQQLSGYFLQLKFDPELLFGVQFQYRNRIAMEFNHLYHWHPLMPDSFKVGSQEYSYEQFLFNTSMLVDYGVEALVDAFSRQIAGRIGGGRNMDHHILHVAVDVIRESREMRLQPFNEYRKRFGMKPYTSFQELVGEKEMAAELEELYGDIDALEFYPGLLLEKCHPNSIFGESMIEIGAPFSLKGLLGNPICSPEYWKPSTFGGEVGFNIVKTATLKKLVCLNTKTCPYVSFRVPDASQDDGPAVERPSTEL

CC(=O)O[C@]1(C(C)=O)CC[C@H]2[C@@H]3C[C@H](C)C4=CC(=O)CC[C@]4(C)[C@H]3CC[C@@]21C [MEDROXYPROGESTERONE ACETATE]
Not Active: IC50 (Substance-P receptor) | IC50 [1] | IC50 [2] | IC50 [3] | Ki [3] | IC50 [4] | IC50 [5] | IC50 [6]

CCN1CCCC1CNC(=O)c1cc(S(N)(=O)=O)ccc1OC (configuration not stated) [SULPIRIDE]
Not Active: IC50 (Substance-P receptor) | IC50 [1] | IC50 [2] | IC50 [3] | Ki [3] | IC50 [4] | IC50 [5] | IC50 [6]

CC(O)C(=O)O (configuration not stated) [LACTIC ACID]
Not Active: IC50 (Substance-P receptor) | IC50 [1] | IC50 [2] | IC50 [3] | Ki [3] | IC50 [4] | IC50 [5] | IC50 [6]

CC(Cl)(Cl)Cl [TRICHLOROETHANE]
Not Active: IC50 (Substance-P receptor) | IC50 [1] | IC50 [2] | IC50 [3] | Ki [3] | IC50 [4] | IC50 [5] | IC50 [6]

CCC(C)(C)C(=O)O[C@H]1C[C@@H](C)C=C2C=C[C@H](C)[C@H](CC[C@@H]3C[C@@H](O)CC(=O)O3)[C@H]21 [SIMVASTATIN]
Not Active: IC50 (Substance-P receptor) | IC50 [1] | IC50 [2] | IC50 [3] | Ki [3] | IC50 [4] | IC50 [5] | IC50 [6]

Cc1ccnc(NS(=O)(=O)c2ccc(N)cc2)n1 [SULFAMERAZINE]
Not Active: IC50 (Substance-P receptor) | IC50 [1] | IC50 [2] | IC50 [3] | Ki [3] | IC50 [4] | IC50 [5] | IC50 [6]

CCN(CC)N=O [N-NITROSODIETHYLAMINE]
Not Active: IC50 (Substance-P receptor) | IC50 [1] | IC50 [2] | IC50 [3] | Ki [3] | IC50 [4] | IC50 [5] | IC50 [6]

CC#C[C@]1(O)CC[C@H]2[C@@H]3CCC4=CC(=O)CCC4=C3[C@@H](c3ccc(N(C)C)cc3)C[C@@]21C [MIFEPRISTONE]
Not Active: IC50 (Substance-P receptor) | IC50 [1] | IC50 [2] | IC50 [3] | Ki [3] | IC50 [4] | IC50 [5] | IC50 [6]

LEAD(IV) ACETATE
Not Active: IC50 (Substance-P receptor) | Ki (Substance-P receptor) | IC50 [1] | Ki [1] | IC50 [2] | Ki [2] | IC50 [3] | Ki [3] | IC50 [4] | Ki [4] | IC50 [5] | Ki [5] | IC50 [6] | Ki [6]

O=C(OC[C@H]1O[C@@H](OC(=O)c2cc(O)c(O)c(OC(=O)c3cc(O)c(O)c(O)c3)c2)[C@H](OC(=O)c2cc(O)c(O)c(OC(=O)c3cc(O)c(O)c(O)c3)c2)[C@@H](OC(=O)c2cc(O)c(O)c(OC(=O)c3cc(O)c(O)c(O)c3)c2)[C@@H]1OC(=O)c1cc(O)c(O)c(OC(=O)c2cc(O)c(O)c(O)c2)c1)c1cc(O)c(O)c(OC(=O)c2cc(O)c(O)c(O)c2)c1 [TANNIC ACID]
Not Active: IC50 (Substance-P receptor) | IC50 [1] | IC50 [2] | IC50 [3] | Ki [3] | IC50 [4] | IC50 [5]
185 nM: IC50 ([6]; read-out: IC50)

CC[C@@]1(O)C(=O)OCc2c1cc1n(c2=O)Cc2cc3c(CN(C)C)c(O)ccc3nc2-1 [TOPOTECAN]
Not Active: IC50 (Substance-P receptor) | IC50 [1] | IC50 [2] | IC50 [3] | Ki [3] | IC50 [4] | IC50 [5] | IC50 [6]

C=CCc1ccc2c(c1)OCO2 [SAFROLE]
Not Active: IC50 (Substance-P receptor) | IC50 [1] | IC50 [2] | IC50 [3] | Ki [3] | IC50 [4] | IC50 [5] | IC50 [6]

C1CCN2C[C@@H]3C[C@@H](CN4CCCC[C@@H]34)[C@H]2C1 [SPARTEINE]
Not Active: IC50 (Substance-P receptor) | IC50 [1] | IC50 [2] | IC50 [3] | Ki [3] | IC50 [4] | IC50 [5] | IC50 [6]

CC[C@H](C)C(=O)O[C@H]1CCC=C2C=C[C@H](C)[C@H](CC[C@@H]3C[C@@H](O)CC(=O)O3)[C@H]21 [MEVASTATIN]
Not Active: IC50 (Substance-P receptor) | IC50 [1] | IC50 [2] | IC50 [3] | Ki [3] | IC50 [4] | IC50 [5] | IC50 [6]

Cc1cn([C@H]2C=C[C@@H](CO)O2)c(=O)[nH]c1=O [STAVUDINE]
Not Active: IC50 (Substance-P receptor) | IC50 [1] | IC50 [2] | IC50 [3] | Ki [3] | IC50 [4] | IC50 [5] | IC50 [6]

Nc1nc(N)c2nc(-c3ccccc3)c(N)nc2n1
Not Active: IC50 (Substance-P receptor) | IC50 [1] | IC50 [2] | IC50 [3] | Ki [3] | IC50 [4] | IC50 [5] | IC50 [6]

Cc1[nH]c(=O)c(C#N)cc1-c1ccncc1 [MILRINONE]
Not Active: IC50 (Substance-P receptor) | IC50 [1] | IC50 [2] | IC50 [3] | Ki [3] | IC50 [4] | IC50 [5] | IC50 [6]

C[C@]12CCC(=O)C[C@@H]1CC[C@@H]1[C@@H]2CC[C@]2(C)[C@@H](O)CC[C@@H]12 [STANOLONE]
Not Active: IC50 (Substance-P receptor) | IC50 [1] | IC50 [2] | IC50 [3] | Ki [3] | IC50 [4] | IC50 [5] | IC50 [6]

CC1(C)[C@H](C(=O)O)N2C(=O)C[C@H]2S1(=O)=O [SULBACTAM]
Not Active: IC50 (Substance-P receptor) | IC50 [1] | IC50 [2] | IC50 [3] | Ki [3] | IC50 [4] | IC50 [5] | IC50 [6]

CCOC(=O)C1=C(C)NC(C)=C(C(=O)OCC)C1c1ccccc1/C=C/C(=O)OC(C)(C)C [LACIDIPINE]
Not Active: IC50 (Substance-P receptor) | IC50 [1] | IC50 [2] | IC50 [3] | Ki [3] | IC50 [4] | IC50 [5] | IC50 [6]

CC(N)C12CC3CC(CC(C3)C1)C2 (configuration not stated) [RIMANTADINE]
Not Active: IC50 (Substance-P receptor) | IC50 [1] | IC50 [2] | IC50 [3] | Ki [3] | IC50 [4] | IC50 [5] | IC50 [6]

CO[C@@]12[C@H](COC(N)=O)C3=C(C(=O)C(C)=C(N)C3=O)N1C[C@@H]1N[C@@H]12 [MITOMYCIN]
Not Active: IC50 (Substance-P receptor) | IC50 [1] | IC50 [2] | IC50 [3] | Ki [3] | IC50 [4] | IC50 [5] | IC50 [6]
